Patent US12371752B2 (priority 2019, dated 2025)

Tested on: Arthrobacter ureafaciens-derived neuraminidase
Experiment: Reactivity of probe with Arthrobacter ureafaciens-derived neuraminidase (time-dependent fluorescence intensity)
Format: biochemical
Settings: probe 1 μM, 0.01 U neuraminidase, 100 mm NaOAc, 2 mM CaCl2, pH7.4, 37° C., excitation 490 nm, emission 520 nm
Description: A probe (HMRef-S-Neu5Ac) was dissolved in dimethyl sulfoxide (DMSO, fluorescence measurement grade, Dojindo Laboratories) to obtain a stock solution. The stock solution was diluted with a buffer solution (100 mm NaOAc, 2 mM CaCl2, pH7.4) such that a final concentration of the probe became 1 μM, to obtain a measurement solution.
A fluorescence spectrum of the measurement solution was obtained by Hitachi F-700, every one second (excitation wavelength 490 nm, emission wavelength 520 nm). Sixty seconds after initiation of measurement, 0.01 U of Arthrobacter ureafaciens-derived neuraminidase was added singly or in combination with an enzyme inhibitor.

SMILES: CC(=O)N[C@H]1[C@H]([C@H](O)[C@H](O)CO)O[C@@](Oc2ccc(COc3ccc4c(c3)Oc3cc(NCC(F)(F)F)ccc3C43OCc4ccccc43)cc2)(C(=O)O)C[C@@H]1O (stereo partly shown) [HMRef-S-Neu5Ac]
- increase of fluorescence intensity by the reaction with the bacterium-derived neuraminidase: 130 times
